{
  "source": "patent US11866409B2",
  "about": "“Apoptosis related protein in the tgf-beta signaling pathway (ARTS) mimetic compounds, compositions, methods and uses thereof in induction of differentiation and/or apoptosis of premalignant and malignant cells, thereby restoring their normal-like phenotype” (CARMEL-HAIFA UNIVERSITY ECONOMIC CORPORATION LTD., priority 2015, dated 2024)",
  "key": {"[1]": {"test_system": "293 cells stably expressing Bcl-2 cherry reporter", "assay": "Combination with BH3 mimetic in Bcl-2 cherry reporter cells", "format": "cell-based", "settings": "A4 combined with ABT199, 293 cells Bcl-2 cherry reporter", "procedure": "pcDNA-3.1 vector carrying Bcl2 with an mCherry fusion c′ terminus fluorescent tag and neomycin (G418) resistance sequences was transfected into HEK 293T cells using Turbofect (Fermentas). Cells were then treated with G418, and resistant fluorescent cells were further sorted and isolated by FACS-sorter. Mono-clones of the stably expressing Bcl2-mCherry and G418 resistance were propagated and used for the experiments."}, "[2]": {"test_system": "M2 organoids", "assay": "M2 organoids in 3D BME culture, polarization and lumen formation", "format": "cell-based, human", "procedure": "Cells were harvested from their growth plates using 0.25% trypsin EDTA. Collected cells were cultured in Cultrex® growth factor reduced Basement Membrane Extract (BME: Trevigen, Inc) as follows: An 8 chamber glass slide system (Lab-TEK® II, Naperville, IL) was coated with 60 μl BME [Barkan D. et al., Cancer Research (2008)](protein concentration between 15 mg/ml; thickness˜1-2 mm). 5×10^3 cells per well were re-suspended in DMEM/F12 supplemented with 2.5% DHS and 2% BME and cultured on the coated slides. Slides were incubated at 37° C., 5% CO2 incubator. Cells were re-fed every 4 days. Cell morphology was monitored by light microscopy. Immunofluorescence images were captured by Nikon A1-R confocal laser scanning microscope (Haifa University, Haifa, Israel).\nLaminin5 immunofluorescence staining: was performed as described by Barkan et al., [Cancer Research (2008)]. Briefly, cells cultured in 8 well chamber glass slides in 3D BME, as described above. The cultured cells were fixed and permeabalized for 5 minutes with 4% Paraformaldehyde (PFA) containing 5% sucrose and 0.2% Triton X-100, and re-fixed for an additional 25 minutes with 4% PFA containing 5% sucrose. The cells were washed for 10 minutes with PBS and an additional 10 minutes with PBS containing 0.05% Tween 20 (Sigma). Fixed cells were blocked with 3% BSA in PBS for 1 hour and incubated overnight at 4° C. with primary antibody (Rabbit polyclonal antibody to Laminin-5 (1:200)). The cells were washed three times with PBS for 15 minutes each, and incubated for 1 hour with […] conjugated to Alexa Fluor®647 (Invitrogen), washed as above and mounted with VECTASHIELD mounting medium with 4′,6-diamidino-2-phenylindole (DAPI). For F-actin staining cells were incubated over night with Alexa-Fluor®488 Phalloidin (1:40) (Molecular Probes) washed three times with PBS for 15 minutes each, and mounted with VECTASHIELD mounting medium with DAPI. The slides were imaged using Nikon A1-R confocal laser scanning microscope (Haifa University, Haifa, Israel). […]"}, "[3]": {"target": "T1, XIAP (Homo sapiens, UniProt P98170)", "T1 sequence (P98170 whole entry)": "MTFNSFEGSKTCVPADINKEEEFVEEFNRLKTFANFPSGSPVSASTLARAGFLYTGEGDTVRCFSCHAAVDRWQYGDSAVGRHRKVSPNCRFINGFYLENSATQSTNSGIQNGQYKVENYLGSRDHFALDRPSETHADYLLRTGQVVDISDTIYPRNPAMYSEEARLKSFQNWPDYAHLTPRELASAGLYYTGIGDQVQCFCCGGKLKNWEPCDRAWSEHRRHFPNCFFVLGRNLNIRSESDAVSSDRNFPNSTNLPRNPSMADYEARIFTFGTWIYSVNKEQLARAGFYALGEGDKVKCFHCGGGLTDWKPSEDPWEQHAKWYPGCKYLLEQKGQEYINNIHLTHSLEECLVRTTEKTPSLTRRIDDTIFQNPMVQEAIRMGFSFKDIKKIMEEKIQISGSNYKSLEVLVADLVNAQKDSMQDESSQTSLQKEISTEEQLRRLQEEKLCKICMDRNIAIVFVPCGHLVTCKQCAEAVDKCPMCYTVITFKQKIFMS", "assay": "Western blot, A375 human melanoma cells", "format": "cell-based", "set-up": "endogenous in cells; host or cells: A375 human melanoma cells", "settings": "20 μM, 24 hrs", "procedure": "(§1) The cells were lysed in WCE (whole-cell extract) buffer [[…] Hepes, pH 7.7, 0.3M NaCl, 1.5 mM MgCl2, 0.2 mM EDTA, 0.1% Triton X-100, 100 μg/ml PMSF and protease inhibitor cocktail (Roche, 1:100 dilution)]. 100 μg of total cell protein, measured with the Bio-Rad Protein Assay kit, were separated by SDS-PAGE (12%) followed by transfer for 2 h on to a nitrocellulose membrane. The membrane was blocked with 5% (w/v) non-fat dried skimmed milk powder in PBS supplemented with 0.05% Tween20 (PBS-T) for 1 hour at room temperature (R.T). Membrane was then probed with primary antibody at 4° C. overnight. Next, the membrane was incubated with the appropriate HRP-conjugated secondary antibody, for 1 hour at R.T. and washed 15 min×3 with PBS-T. WesternBright ECL (Advansta) was added to the membrane for 2 min and analyzed using ImageQuant LAS-4000 analyzer (GE Healthcare Life Sciences) & “ImageQuant LAS-4000” software (GE Healthcare Life Sciences). Densitometry analysis was performed using ImageQuant total lab 7 (GE Healthcare Life Sciences), image analysis software.\n(§2) The candidate molecules were next subjected to functional assays, examining their ability to induce apoptosis. Therefore, the expression of several apoptotic markers was examined in A375 human melanoma cells exposed to 20 μM of each of the candidate compounds. […] No effect on cCaspase or c-PARP was shown."}, "[4]": {"target": "T1, XIAP", "assay": "Proteasome-mediated degradation study, T47D breast cancer cells", "format": "cell-based", "set-up": "endogenous in cells; host or cells: T47D breast cancer cells", "procedure": "as §1\n(§3) T47D breast cancer cells: 1*10^6 T47D cells were seeded on a 10 cm plate in RPMI and were propagated to 80% confluence. Cells were treated for 1 hour with either DMSO (control) or 30 μM A4 together with 20 μM MG-132 (proteasome inhibitor) or without MG-132. […]"}, "[5]": {"test_system": "M2 cells (MCF10AT1K, premalignant breast cells)", "assay": "Proliferation assay of M2 cells in 2D culture", "format": "cell-based, human", "settings": "24 and 48 hours", "procedure": "Human breast cancer cell lines MCF-10A (M1) was received from Prof. Israel Vlodavsky (Technion, Israel), MCF10AT1K (M2) and MCF10ACA1 h (M3) were received from Dr. Fred Miller (Barbara Ann Karmanos Cancer Institute). M1 and M2 cells were maintained in DMEM/F12 supplemented with 5% donor horse serum (DHS), 1% sodium pyrovate, 1% L-glutamine, 0.02 μg/ml epidermal growth factor (EGF; Peprotech), 0.01 mg/ml insulin (Sigma), 0.5 μg/ml hydrocortisone (Sigma), 0.1 μg/ml cholera toxin (Sigma) and 1% penicillin-streptomycin at 37° C., 5% CO2 incubator. M3 cells were maintained in DMEM/F12 supplemented with 5% DHS and 1% penicillin-streptomycin at 37° C. and incubated in 5% CO2 incubator.\nThe CellTiter 96 AqueousOne Solution of cell proliferation assay kit (Promega) was added to the wells for 2 hours to measure cell proliferation according the manufacturer's instructions. The absorbance was recorded at 490 nm."}, "[6]": {"test_system": "Bcl-2", "assay": "Proteasome-mediated degradation study, T47D breast cancer cells", "format": "cell-based", "procedure": "as §1, §3"}, "[7]": {"test_system": "Bcl-2", "assay": "Proteasome-mediated degradation study, HeLa cervical cancer cells", "format": "cell-based", "procedure": "as §1\n(§4) HeLa cervical cancer cells: 1.5*10^6 HeLa cells were seeded on a 10 cm plate in DMEM and were propagated to 80% confluence. Cells were treated for 2 hour with either DMSO (control) or 30 μM A4 together with 20 μM MG-132 (proteasome inhibitor) or without MG-132. […]"}, "[8]": {"target": "T1, XIAP", "assay": "Proteasome-mediated degradation study, HeLa cervical cancer cells", "format": "cell-based", "set-up": "endogenous in cells; host or cells: HeLa cervical cancer cells", "procedure": "as §1, §4"}, "[9]": {"test_system": "c-PARP", "assay": "Western blot, A375 human melanoma cells", "format": "cell-based", "settings": "20 μM, 24 hrs", "procedure": "as §1, §2"}, "[10]": {"test_system": "Bcl-2", "assay": "Western blot, A375 human melanoma cells", "format": "cell-based", "settings": "20 μM, 24 hrs", "procedure": "as §1, §2"}, "[11]": {"test_system": "cCaspase", "assay": "Western blot, A375 human melanoma cells", "format": "cell-based", "settings": "20 μM, 24 hrs", "procedure": "as §1, §2"}, "[12]": {"target": "recombinant GST-tagged XIAP (Homo sapiens, UniProt P98170)", "sequence (P98170 whole entry)": "as above", "assay": "MicroScale Thermophoresis (MST) binding to whole XIAP", "settings": "GST-tagged XIAP (FIG. 4D), read-out: calculated Kd", "procedure": "(§5) 340 nM of fl-labeled Bir3 was titrated with A4 compound in 1:1 dilutions beginning at 500 μM, in a 25 mM Tri-Sodium acetate buffer pH 5.6, 2% DMSO and 0.05% Tween 20. The measurements were performed on a NanoTemper Monolith instrument.\n(§6) To further characterize the A4 candidate, MicroScale Thermophoresis (MST) was used to evaluate the binding of the A4 compound to fluorescently labeled Bir3 (His-tagged) domain of XIAP, residues 252-350. […] Microscale thermophoresis (MST) is a technology for the interaction analysis of biomolecules. Microscale thermophoresis is the directed movement of particles in a microscopic temperature gradient. Any change of the hydration shell of biomolecules due to changes in their structure/conformation results in a relative change of the movement along the temperature gradient and is used to determine binding affinities. MST allows measurement of interactions directly in solution without the need of immobilization to a surface (immobilization-free technology).\nTo further characterize the A4 candidate, the MSTtechnology described above was used to evaluate the binding of the A4 compound to recombinant GST-tagged XIAP, as presented in FIG. 4D."}, "[13]": {"target": "T2, fluorescently labeled Bir3 (His-tagged) domain of XIAP, residues 252-350 (Homo sapiens, UniProt P98170)", "T2 construct": "His-tagged Bir3 (XIAP 252-350) was expressed and purified; made in house", "T2 sequence (P98170 252-350)": "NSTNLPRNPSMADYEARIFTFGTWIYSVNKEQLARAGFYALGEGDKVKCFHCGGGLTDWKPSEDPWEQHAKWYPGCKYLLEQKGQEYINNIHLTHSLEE", "assay": "MicroScale Thermophoresis (MST) binding to Bir3 domain of XIAP", "settings": "340 nM fl-labeled Bir3, pH 5.6, 2% DMSO, read-out: calculated Kd", "procedure": "His-tagged Bir3 (XIAP 252-350) was expressed and purified as previously described (Reingewertz et al, 2011). The purified Bir3 was labeled with the Monolith NT™ Protein Labeling Kit RED according to the supplied labeling protocol.\nas §5, §6"}, "[14]": {"test_system": "XIAP", "assay": "Western blot, M2 cells transfected with 6myc-ARTS, caspase inhibition", "format": "cell-based, human", "procedure": "(§7) The cells were transfected with either 6-MycTag-ARTS in pCS2 or sport-ARTS in pCMV plasmid, that was produced in Sarit Larisch lab as described previously (Larisch & Yi […]). For the transfection the Turbofect (Fermentas) was used with concentration of 0.1 μg/l DNA for 6-MycTag-ARTS and sport-ARTS plasmid.\nas §1\n(§8) The inventors next examined whether caspases mediate the cleavage of the N′-terminal part of ARTS. To this end, the inventors transfected M2 cells with 6myc-ARTS and cells were either untreated or treated with a pan inhibitor of all caspases, Q-VD. […] In contrast, no change in XIAP levels was shown (FIG. 7D)."}, "[15]": {"test_system": "Bcl-2", "assay": "Western blot, M2 cells transfected with 6myc-ARTS, caspase inhibition", "format": "cell-based, human", "procedure": "as §7, §1, §8"}, "[16]": {"test_system": "6myc-ARTS", "assay": "Western blot, M2 cells transfected with 6myc-ARTS, caspase inhibition", "format": "cell-based, human", "procedure": "as §7, §1, §8"}, "[17]": {"settings": "30 μM A4 + 20 μM MG-132, 1 hour"}, "[18]": {"settings": "30 μM A4 + 20 μM MG-132, 2 hour"}},
  "data": [
    {"smiles": "COC(=O)c1[nH]c2ccc(Cl)cc2c1NC(=O)CN1CCN(Cc2ccccc2)CC1", "note": "[A4, methyl 5-chloro-3-[[2-[4-(phenylmethyl)piperazin-1-yl]acetyl]amino]-1H-indole-2-carboxylate]", "values": [
      {"measurement": "effect of combination with BH3 mimetic", "setting": "[1]", "value": "synergetic effect"},
      {"measurement": "apicobasal polarization (GM130, Laminin 5 staining)", "setting": "[2]; 40 μM, 7 days", "value": "initiation of apical staining of GM130 and basal staining of Laminin 5"},
      {"measurement": "organoid phenotype", "setting": "[2]; 40 uM, 14 days", "value": "conversion thereof to a normal-like phenotype"},
      {"measurement": "polarization and lumen formation", "setting": "[2]; 40 uM, 14 days", "value": "apicobasal polarization of M2 organoids followed by luminal formation"},
      {"measurement": "levels of XIAP", "setting": "[3]", "value": "clearly reduced"},
      {"measurement": "XIAP levels with proteasome inhibitor", "setting": "[4]; [17]", "value": "restored"},
      {"measurement": "XIAP levels", "setting": "[4]; 30 μM A4, 1 hour", "value": "specific decrease"},
      {"measurement": "apoptotic cells", "setting": "[5]", "value": "only low amount of apoptotic cells"},
      {"measurement": "cell proliferation", "setting": "[5]", "value": "decrease in cell proliferation"},
      {"measurement": "Bcl-2 levels with proteasome inhibitor", "setting": "[6]; [17]", "value": "restored"},
      {"measurement": "Bcl-2 levels", "setting": "[6]; 30 μM A4, 1 hour", "value": "decrease"},
      {"measurement": "Bcl-2 levels with proteasome inhibitor", "setting": "[7]; [18]", "value": "restored"},
      {"measurement": "Bcl-2 levels", "setting": "[7]; 30 μM A4, 2 hour", "value": "decrease"},
      {"measurement": "XIAP levels with proteasome inhibitor", "setting": "[8]; [18]", "value": "restored"},
      {"measurement": "XIAP levels", "setting": "[8]; 30 μM A4, 2 hour", "value": "specific decrease"},
      {"measurement": "effect on c-PARP", "setting": "[9]", "value": "No effect"},
      {"measurement": "levels of Bcl-2", "setting": "[10]", "value": "clearly reduced"},
      {"measurement": "effect on cCaspase", "setting": "[11]", "value": "No effect"},
      {"measurement": "Kd", "setting": "[12]", "value": "34.6 ± 2.48", "unit": "µM"},
      {"measurement": "Kd", "setting": "[13]", "value": "46.1 ± 3.65", "unit": "µM"}
    ]},
    {"smiles": "CC(C)[C@H](NC(=O)c1ccc2ccccc2n1)C(=O)N[C@@H](CC(=O)O)C(=O)COc1c(F)cccc1F", "note": "[Q-VD]", "values": [
      {"measurement": "XIAP levels", "setting": "[14]", "value": "no change"},
      {"measurement": "Bcl-2 levels", "setting": "[15]", "value": "significantly increased"},
      {"measurement": "cleaved 6-myc ARTS", "setting": "[16]", "value": "decrease"},
      {"measurement": "uncleaved 6myc-ARTS", "setting": "[16]", "value": "increase"}
    ]}
  ]
}
